Source: patent US6162799A, “Pesticidal compounds” (BTG International Limited, priority 1995, dated 2000)
Values after ≈ are worked out from the molar mass of the structure shown.

Tests used:
Myzus persicae [1] = test: Aphicidal activity, topical application; type: in vivo; conditions: susceptible strain USIL, 100 ppm, 72 h, read-out: Topical aphid results, % kill M.P. USIL
Description: (§1) Activity against resistant (R) and susceptible (S) strains of aphid (Myzus persicae) and Aphis gossypiae was assessed using the following two methods.
(§2) Batches of 10-15 apterous adults were removed from stock cultures and placed on leaf discs (35 mm in diameter) cut from chinese cabbage and held on an agar bed (25 mm deep) in disposable plastic containers (30 mm high). Using a Burkhard micro-applicator aphids were dosed individually with a 0.25 μm droplet of chemical diluted to the required concentration in acetone. control insects were dosed with acetone only. Mortality and other effects were scored at 24 hour intervals up to and including 72 hour post-treatment, the end-point to which the results relate.
(§3) The test was carried out using a susceptible strain of aphids (US1L) collected in the field in East Anglia, UK and an extremely resistant strain of aphids (794Jz) (R^3 esterase, sensitive ACHE) collected from glasshouses in the UK.
(§4) The values given are % mortality corrected for control data. The control comprised the test solution without active ingredient.

Myzus persicae [2] = test: Aphicidal activity, aphid-dip; type: in vivo
Description: as §1
(§5) Entrapment rings of fluon were painted halfway up the inside of 4 cm lengths of glass tubing (1.5 cm diameter), and squares of insect-proof gauze were attached to one end of each tube by elastic bands. Fifteen apterous adults were then gently transferred into the tubes using a sable-hair brush, and the tube sealed with a second gauze square.
(§6) Tubes containing aphids were dipped into insecticide solutions for 10 seconds, dried on blotting paper, and then inverted and tapped to cause treated aphids to fall to the unimmersed end of each tube. Handling mortality (usually zero or very slight) was scored after 1 hour, when aphids were transferred onto chinese cabbage leaf-discs (35 mm diameter) on an agar bed (25 mm in depth) in disposible plastic containers (30 mm high) and confined by applying a ring of fluon to the exposed lip of the container. Containers were stored upright, without lids, in a constant environment facility maintained at 25° C. under continuous room lighting. Mortality was assessed at 24, 48 and 72 hours. Two replicates of 15 aphids each were used at each dose rate and 5 or 6 dose rates were used per compound under test.
as §3, §4

[3] = system: Pyricularia oryzae (=Magnaporthe grisea); type: cell-based; conditions: P. oryzae, 100 mg 1^-1, 7 days
Musca domestica = test: Topical test on houseflies (MD); type: in vivo; conditions: for MD (LD50): houseflies, topical on thorax, kill assessed 24 and 48 h
Description: (§7) Pesticidal activity was assessed against houseflies, mustard beetles, mites and whitefly using the following methods.
Houseflies (MD) (Musca domestica)
Female flies were treated on the thorax with a one microliter drop of test compound dissolved in acetone. Two replicates of 15 flies were used at each dose rate and 6 dose rates were used per compound under test. After treatment, the flies were maintained at a temperature of 20°±1° C. and kill was assessed 24 and 48 hours after treatment. LD50 values were calculated in micrograms of test compound per fly (see Sawicki et al., Bulletin of the World Health Organisation, 35, 893 (1966) and Sawicki et al., Entomologia and Exp. Appli 10, 253, (1967).
(§8) The values given are LD50 (μg/insect) or LC50 (ppm solution of test compound) unless otherwise specified.

Aphis gossypiae = test: Aphicidal activity, aphid-dip; type: in vivo; conditions: strain 81-171B, read-out: Aphid-dip result, % kill A.G. 81-171B
Description: as §1, §5, §6, §4

Phaedon cochleariae Fab = test: Topical test on mustard beetles (PC); type: in vivo; conditions: for PC (LD50): mustard beetles, topical, 48 h
Description: as §7
Mustard beetles (PC) (Phaedon cochleariae Fab)
A one microliter drop of an acetone solution of the test compound was applied ventrally to adult mustard beetles using a micro drop applicator. The treated insects were maintained for 48 hours after which time kill was assessed. Two replicates each of 20 to 25 mustard beetles were used at each dose level and 5 dose levels were treated comparably. LD50 values were calculated as for houseflies.
as §8

Rhizoctonia solani = type: cell-based; conditions: R. solani
Bemisia tabaci = test: Film/vial test on whitefly (BT), susceptible strain SUD-S; type: in vivo; conditions: 48 h, read-out: BT (SUD-S) (LC50)
Description: as §7
Whitefly (BT) (Bemisia tabaci)
Acetone solutions (0.100 ml) of the test compounds were placed in 10 ml glass vials and evaporated with rotation to deposit a film of the compound. Thirty adult whiteflies were placed inside the vial, then after 60 minutes, the treated insects were transferred onto untreated cotton leaf discs which were kept moist on a bed of agar gel. The temperature was maintained at 25° C. and mortality assessed after 48 hours. Three replicates were used at each of 5 to 7 dose levels per compound. LC50 values were calculated by using a computer software package ("Polo-PC" available from LeOra Software, Berkeley, Calif.). (See M. R. Cahill and B. Hackett in Proceedings Brighton Crop Protection Conference, 1992). The test was carried out using a susceptible strain of whitefly (SUD-S) which was collected in Sudan in 1978 from cotton.
as §8

Aspergillus niger = type: cell-based; conditions: A. niger
Tetranychus urticae = test: Immersion test on mites (TU), susceptible strain GSS; type: in vivo; conditions: 72 h, read-out: TU (GSS) (LC50)
Description: as §7
Mites (TU) (Tetranychus urticae)
25 adult female mites were immersed in 35 μl of a solution of the test compound in a 1:4 acetone-water mixture for 30 seconds. The treated insects were maintained at 21°±2° C. and kill was assessed 72 hours after treatment. […] Three replicates of 25 mites each were used at each dose rate and 5 or 6 dose rates were used per compound under test. LC50 values were calculated in ppm of the solution of the test compound per insect. The test was carried out using a susceptible strain of mites (GSS) supplied by Schering, AG, Berlin.
as §8

Myzus = test: Aphicidal activity of comparative compounds (topical or dip not stated); type: in vivo; conditions: prior art t-butyl compound; in the tests set out above; concentration not given
Description: as §1
as §2, with “relate. […]” for “relate.”
as §6, with “Containers were stored upright, without lids, in a constant environment facility maintained at 25° C. under continuous room lighting.” left out, “Two replicates of 15 aphids each were used at each dose rate and 5 or 6 dose rates were used per compound under test.” left out

acarids and fungi = conditions: cited from earlier work
Tetranychus = conditions: Tabelle A of EP 0300218 A1; cited from earlier work
[4] = resistant strain 794JZ, read-out: Aphid-dip result, % kill M.P. 794JZ
[5] = susceptible strain USIL, read-out: Aphid-dip result, % kill M.P. USIL
[6] = 100 mg 1^-1, 4 days at 20-25° C.
[7] = prior art t-butyl compound, tested by the present inventors

Compound | mortality at 100 ppm (Myzus persicae [1]) | mortality at 100 ppm (Myzus persicae [2]; [4]) | mortality at 100 ppm (Myzus persicae [2]; [5]) | MD (LD50) (Musca domestica) | mortality at 100 ppm (Aphis gossypiae) | PC (LD50) (Phaedon cochleariae Fab) | LC50 (Bemisia tabaci) | LC50 (Tetranychus urticae) | other results
C[Si](C)(C)CCC1=C(O)C(=O)c2ccccc2C1=O [Example 2, 2-hydroxy-3-(2'-trimethylsilylethyl)-1,4-naphthoquinone] | 45% | 54% | 77% | 0.69 μg/insect | 63% | 0.45 μg/insect | 2.6 µg/mL (≈ 9.48 µM) | 38 µg/mL (≈ 138 µM) | Activity at 100 mg 1^-1 (% inhibition of growth in colony diameter) [3]: 67%; Activity at 100 mg 1^-1 (% inhibition of growth in colony diameter) (Rhizoctonia solani; [6]): 35%; Activity at 100 mg 1^-1 (% inhibition of growth in colony diameter) (Aspergillus niger; [6]): 18%
CCCN(CCOc1c(Cl)cc(Cl)cc1Cl)C(=O)n1ccnc1 [Prochloraz, prochloraz, reference compound] | – | – | – | – | – | – | – | – | Activity at 1 mg 1^-1 (% inhibition of growth in colony diameter) (Aspergillus niger; 1 mg 1^-1): 97.8%
CC(C)(C)C1CCC(C2=C(O)C(=O)c3ccccc3C2=O)CC1 (stereo not shown) [t-butyl compoud, reference compound] | – | – | – | – | – | – | – | – | LD50 against Musca (Musca domestica; [7]): 16 μg/insect; LD50 against Phaedon (Phaedon cochleariae Fab; [7]): 0.53 μg/insect; kill against Myzus (Myzus): 19%
C[Si](C)(C)C1CCC(C2=C(O)C(=O)c3ccccc3C2=O)CC1 (stereo not shown) [compound of Example 5 (DE 3801743 A1)] | – | – | – | – | – | – | – | – | pesticidal activity relative to other disclosed compounds (acarids and fungi; DE 3801743 A1): not the most pesticidally active compound; acaricidal and fungicidal activity (acarids and fungi; data in DE 3801743 A1): some acaricidal and fungicidal activity; activity against Tetranychus relative to tertiary butyl compound (Tetranychus): less than the corresponding tertiary butyl compound
COC(=O)Nc1nc2ccccc2[nH]1 [Carbendazim, carbendazim] | – | – | – | – | – | – | – | – | Activity at 1 mg 1^-1 (% inhibition of growth in colony diameter) (Rhizoctonia solani; 1 mg 1^-1): 3.3%; Activity at 5 mg 1^-1 (% inhibition of growth in colony diameter) (Rhizoctonia solani; 5 mg 1^-1): 82.4%
C[Si](C)(C)CCCCCCCCCC1=C(O)C(=O)c2ccccc2C1=O [Example 12, 2-hydroxy-3-(9-trimethylsilylnonyl)-1,4-naphthoquinone] | 89% | 61% | 100% | 2.8 μg/insect | 93% | 0.13 μg/insect | 8.6 µg/mL (≈ 23.1 µM) | 0.9 µg/mL (≈ 2.42 µM) | –
